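Values below derive from 48-hour exposures of cells grown in 96-well plates, with endpoints linearly interpolated between the two concentrations bracketing the appropriate inhibition level. GI50 = concentration required for 50% inhibition of growth. TGI denotes the concentration required for complete inhibition of growth.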
What was measured:
Assay in all cases: DTP human tumour cell line panel, 48 h
[1] = test system: BT-549 breast
[2] = test system: TK-10 renal
[3] = test system: IGROV1 ovarian
[4] = test system: K-562 leukemia
[5] = test system: SK-MEL-5 melanoma
[6] = test system: CAKI-1 renal
[7] = test system: UO-31 renal
[8] = test system: MDA-MB-435
[9] = test system: COLO 205 colon
[10] = test system: SN12C renal
[11] = test system: MDA-MB-231 breast
[12] = test system: OVCAR-3 ovarian
[13] = test system: SW-620 colon
[14] = test system: T-47D breast
[15] = test system: LOX IMVI melanoma
[16] = test system: U251 CNS
[17] = test system: HT29 colon
[18] = test system: HCC-2998 colon
[19] = test system: MCF7 breast
[20] = test system: ACHN renal
[21] = test system: SK-MEL-2 melanoma
[22] = test system: SK-MEL-28 melanoma
[23] = test system: HCT-116 colon
[24] = test system: SK-OV-3 ovarian
[25] = test system: NCI-H522 lung
[26] = test system: OVCAR-4 ovarian
[27] = test system: CCRF-CEM leukemia
[28] = test system: M14 melanoma
[29] = test system: HOP-92 NSCLC
[30] = test system: SF-539 CNS

CN1CCc2c(sc3ncnc(N/N=C/c4cn(-c5ccccc5)nc4-c4ccc(Cl)cc4)c23)C1
GI50 [1]: 2890 nM | TGI [1]: > 31800 nM | GI50 [2]: 2470 nM | TGI [2]: 38300 nM | GI50 [3]: 379 nM | TGI [3]: 21100 nM | GI50 [4]: 290 nM | TGI [4]: > 100000 nM | GI50 [5]: 544 nM | TGI [5]: 20500 nM | GI50 [6]: 1320 nM | TGI [6]: > 66700 nM | GI50 [7]: 475 nM | TGI [7]: 25400 nM | GI50 [8]: 1610 nM | TGI [8]: > 100000 nM | GI50 [9]: 406 nM | TGI [9]: > 100000 nM | GI50 [10]: 340 nM | TGI [10]: > 100000 nM | GI50 [11]: 468 nM | TGI [11]: 32000 nM | GI50 [12]: 242 nM | TGI [12]: 6220 nM | GI50 [13]: 387 nM | TGI [13]: > 100000 nM | GI50 [14]: 2590 nM | TGI [14]: > 100000 nM | GI50 [15]: 305 nM | TGI [15]: 4120 nM | GI50 [16]: 688 nM | TGI [16]: > 54100 nM | GI50 [17]: 442 nM | TGI [17]: 13900 nM | GI50 [18]: 500 nM | TGI [18]: 34800 nM | GI50 [19]: 223 nM | TGI [19]: 635 nM | GI50 [20]: 481 nM | TGI [20]: 20400 nM | GI50 [21]: 990 nM | TGI [21]: 24400 nM | GI50 [22]: 5560 nM | TGI [22]: > 100000 nM | GI50 [23]: 115 nM | GI50 [24]: > 36200 nM | TGI [24]: > 76100 nM | GI50 [25]: 323 nM | TGI [25]: 5380 nM | GI50 [26]: 462 nM | TGI [26]: 69900 nM | GI50 [27]: 504 nM | TGI [27]: > 100000 nM | GI50 [28]: 598 nM | TGI [28]: > 38700 nM | GI50 [29]: 643 nM | TGI [29]: 49600 nM | GI50 [30]: 345 nM | TGI [30]: 10700 nM

— PubChem BioAssay (NCI)
